Reference: patent US20160067269A1, “Miltefosin Or Perifosin For Use In The Treatment of IBD” (ACADEMISCH MEDISCH CENTRUM, priority 2013, published 2016)

Columns and labels:
[1] = tested on: SCID mice (C.B-17/lcrHsd-Prkcd); test: experimental colitis transfer model (CD45RBHigh cells injected into SCID mice); assay type: in vivo, mouse; conditions: 50 mg/kg oral gavage twice a week
Description: To study the application of miltefosine as an anti-inflammatory drug, miltefosine was tested in the experimental colitis transfer model. In this model SCID mice, lacking T and B lymphocytes, are injected with only effector T lymphocytes (CD4^+CD45RB^High) omitting regulatory T lymphocytes (CD4^+CD45RB^Low). The absence of the letter causes, over a period of two months, the development of chronic inflammation of the colon.
Mouse CD4 positive lymphocytes were isolated from the spleen of normal mice (Balb/c OlaHsd). The spleen was removed, forced through a cell strainer to obtain a single cell suspension. Erythrocytes were lysed by adding water, quickly followed by PBS. The remaining cells were enriched in CD4 positive cells by negative depletion using magnetic beads specific for B cell (anti-B220), macrophages (anti-Mac-1) and cytotoxic T lymphocytes (anti-CD8). The remaining cell were washed and labeled for CD4 (CD4-PerCP-Cy5) and CD45RB (CD45RB-FITC). Using a FACS sorter the cell were separated in CD4 cells expressing low levels of CD45RB (CD45RB^Low) and high levels of CD45RB (CD45RB^High).
To induce colitis, SCID mice (C.B-17/lcrHsd-Prkcd) were injected with 5·10^5 CD45RB^High cells.
The mice were divided in three groups, each group containing 10 mice. […] Group two and three both received only CD45RB^High cells and developed colitis. Only group three received miltefosine (50 mg/kg) via oral gavage. Treatment started two weeks after the start of the experiment and was given twice a week until the end of the experiment. The mice were weighted three times a week during the entire duration of the experiment.
Part of the colon of each mouse was embedded in paraffin, cut and stained with hematoxylin and eosin (HE). The pathology score takes in account epithelial cell hyperplasia, leukocyte infiltrations, loss of goblet cells, ulceration and cryptabscesses.

[2] = 50 mg/kg per treatment; reported in literature; cited from earlier work
human patients = conditions: high dosages; cited from earlier work

## CCCCCCCCCCCCCCCCOP(=O)([O-])OCC[N+](C)(C)C [miltefosine, hexadecyl phosphocholine]
[1]; after day 42
  weight loss in two days time: ten
[1]; between the groups
  average weight at the end of the experiment: does not differ significantly
[1]; till day 42
  average weight of the group versus negative control group: corresponded with the negative control group
[2]
  effect on bodyweight: can affect bodyweight negatively
Human patients
  side effects in human patients: nausea and vomiting
